Source: paper PMC8468783, “New Flavone C-Glycosides from Scleranthus perennis and Their Anti-Collagenase Activity” (Molecules, 2021)

Key:
[1] = biological target: collagenase from Clostridium histolyticum; experiment: In vitro collagenase inhibition assay (spectrophotometric, FALGPA substrate); type: biochemical; conditions: mean ± SD, triplicate; 0.1 U/mL collagenase, 0.8 mM FALGPA, Tricine buffer pH 7.5, 37 °C, 20 min incubation, absorbance at 335 nm; read-out: Anti-collagenase activity IC50
Description: The previous spectrophotometric procedure was modified and subsequently employed to determine the anti-collagenase activity of the isolated compounds [23]. This assay was performed in 50 mM Tricine buffer (pH = 7.5; 400 mM NaCl, 10 mM CaCl2). The mixed solution included 25 µL of 0.1 U/mL collagenase from Clostridium histolyticum, 25 µL Tricine buffer, and 25 µL of various levels of the sample were incubated at 37 °C for 20 min. After incubation, 75 µL of 0.8 mM FALGPA substrate was present. Then, absorbance was measured at 335 nm wavelength. Negative control was performed using Tricine buffer instead of sample and positive control was conducted with EGCG.
The percentage inhibition for assay was calculated by: Enzyme inhibition activity (%) = [1 − […]] × 100% where C is the negative control and S is the sample.

SMILES | melting point [°C] | IC50 [1] [µM]
CC(=O)Oc1ccc(-c2cc(=O)c3c(O)cc(O)c(C4OCC(O)C(O)C4OC4OC(CO)C(O)C(O)C4O)c3o2)cc1O [Compound 1, 5,7,3′-trihydroxy-4′-acetoxyflavone-8-C-β-D-xylopyranoside-2′′-O-glucoside] | 188.5 to 189 | 70.2 ± 1.37
COc1ccc(-c2cc(=O)c3c(O)cc(O)c(C4OCC(O)C(O)C4OC4OC(CO)C(O)C(O)C4O)c3o2)cc1O [Compound 2, 5,7,3′-trihydroxy-4′-methoxyflavone-8-C-β-D-xylopyranoside-2′′-O-glucoside] | 178.5 to 179.2 | 64.9 ± 1.08
COc1cc(-c2cc(=O)c3c(O)cc(O)c(C4OCC(O)C(O)C4OC4OC(CO)C(O)C(O)C4O)c3o2)ccc1OC(C)=O [Compound 3, 5,7-dihydroxy-3′-methoxy-4′-acetoxyflavone-8-C-β-D-xylopyranoside-2′′-O-glucoside] | – | 48.3 ± 1.05
COc1cc(-c2cc(=O)c3c(O)cc(O)c(C4OCC(O)C(O)C4OC4OC(CO)C(OC(C)=O)C(O)C4O)c3o2)ccc1OC(C)=O [Compound 4, 5,7-dihydroxy-3′-methoxy-4′-acetoxyflavone-8-C-β-D-xylopyranoside-2′′-O-(4′′′-acetoxy)-glucoside] | 164.6 to 166.2 | 36.1 ± 0.78
COc1ccc(C(C)=O)c(O[C@@H]2O[C@H](CO[C@@H]3OC[C@](O)(CO)[C@H]3O)[C@@H](O)[C@H](O)[C@H]2O)c1 [Compound 5, apiopaenonside] | – | > 125
O=C(O[C@@H]1Cc2c(O)cc(O)cc2O[C@@H]1c1cc(O)c(O)c(O)c1)c1cc(O)c(O)c(O)c1 [EGCG, Epigallocatechin gallate, reference compound] | – | 34.32 ± 0.21
